{
  "source": "patent US6403624B1",
  "about": "“8,8A-dihydroindeno[1,2-D] thiazole derivatives which are substituted in the 8A-position; processes for their preparation and their use as medicaments” (Aventis Pharma Deutschland GmbH, priority 2000, dated 2002)",
  "key": {"female NMRI mice": {"test_system": "female NMRI mice", "test": "Anorectic action: cumulated milk consumption after oral administration", "assay_type": "in vivo", "description": "The anorectic action was tested on female NMRI mice. After withdrawal of food for 24 hours, the test preparation of the invention was administered via a stomach tube. Kept individually and with free access to drinking water, the animals were offered evaporated milk 30 minutes after the administration of the preparation. The consumption of evaporated milk was determined every half-hour for 7 hours and the general condition of the animals was observed. The measured milk consumption was compared with that of untreated control animals."}},
  "data": [
    {"smiles": "OC12N=C(c3ccccc3)SC1(Br)Cc1cc(Cl)ccc12", "note": "(stereo not drawn) [Example 1, 8a-Bromo-6-chloro-2-phenyl-8,8a-dihydroindeno[1,2-d]thiazol-3a-ol]", "values": [
      {"measurement": "Number of animals/ cumulated milk consumption of the treated animals N/[ml]", "setting": "female NMRI mice; oral dose 50 mg/kg via stomach tube, female NMRI mice after 24 h food withdrawal, evaporated milk consumption determined over 7 hours, N=5", "value": "5/0.64 ml"},
      {"measurement": "Reduction of the cumulated milk consumption in % of the control", "setting": "female NMRI mice; oral dose 50 mg/kg, female NMRI mice, compared to untreated control animals", "value": 82, "unit": "%"},
      {"measurement": "melting point", "value": 148, "unit": "°C"}
    ]}
  ]
}
